Reference: patent US20120164104A1, “Composition and Methods of Treating Viral Infections and Viral Induced Tumors” (Chimerix, Inc., priority 2009, published 2012)

Tests used:
BKV(Dunlop) [1] = test: BKV early and late protein expression in infected RPTECs (immunofluorescence, western blot); type: cell-based; conditions: for LTag staining reduced / decrease of VP1 by western blotting: CMX001 0.31 μM
Method: For FIG. 1(b), indirect immunofluorescence of untreated and CMX001 treated BKV-infected RPTECs, methanol fixed 72 h pd. and stained with rabbit anti-agnoprotein serum (green) for visualization of the late agnoprotein and with the SV40 LTag monoclonal Pab416 for visualization og BKV LTag (red). Cell density is shown by Drac 5 staining in blue.
For FIG. 4(a), indirect immunofluorescence of untreated and CMX001 treated BKV-infected RPTECs, methanol fixed 48 and 72 h p.i. and stained with rabbit anti-agnoprotein serum (green) for visualization of the late agnoprotein and with the SV40 LTag monoclonal Pab416 for visualization of BKV LTag (red). For FIG. 4(b), cell extracts from CMX001-treated and untreated BKV-infected RPTECs were harvested 48 and 72 h p.i. and western blot performed with rabbit anti-BKV VP1, anti-agnoprotein serum and a monoclonal antibody directed against the housekeeping protein GAPDH.
Primary human renal proximal tubule epithelial cells (RPTECs), BKV(Dunlop) and all methods as previously described by Bernhoff et al (See Bernhoff et al., Cidofovir inhibits polyomavirus BK replication in human renal tubular cells downstream of viral early gene expression, Am J Transplant 8, 1413-1422 (2008).) Only one exception, quantitative PCR (qPCR) to quantify intracellular or extracellular BKV DNA load was performed with a different primer/probe set also targeting the LTag gene (See Hirsch, et al., J. Prospective study of polyomavirus type BK replication and nephropathy in renal-transplant recipients, N Engl J. Med., 347, 488-496 (2002)). Before each experiment, CMX001 was freshly dissolved to 1 mg/ml in methanol/water/ammonium hydroxide (50/50/2). It was further diluted in RPTEC growth medium.
To investigate expression of LTag at the single-cell level, immunofluorescence staining at 48 and 72 h p.i was performed. At 48 h p.i. the number of BKV positive cells was almost the same in CMX001 and untreated wells. At 72 h p.i., the CMX001 treated cells seemed to express less LTag pro cell (FIG. 4a).

EBV = test: CMX001 in human patients with EBV-associated PTLD; type: in vivo; conditions: for EBV viral load: heart transplant recipient
Excerpt: The first patient is a patient with a history of sickle cell anemia developed EBV-associated intracranial post-transplant lymphoproliferative disorder (PTLD). EBV was positive in the plasma (7 Dec. and 14 Dec. 2010) and brain biopsies were consistent with PTLD. In early December, the patient presented with a 3 day history of persistent headache, nausea, vomiting, and diarrhea. […] The patient was admitted to PICU. High intracranial pressure, repetitive seizures associated with apnea led to intubation and emergency request for CMX001. The use of CMX001 in this patient with EBV-associated PTLD is ongoing since […].
The second patient was a heart transplant recipient with EBV-associated PTLD. The patient acquired a primary EBV infection post-operatively. […] The clinical condition continued to destabilize with what was presumed to be EBV-associated encephalitis with EBV detected in the CSF, clinical and EEG-correlated seizure activity and decreased responsiveness and changes in mental status. At the time of request for CMX001, the patient was on mechanical ventilation, had evidence of both pneumonia and PTLD of their lungs, evidence of seizure activity with clinical criteria for encephalopathy being present. The patient received their first dose of CMX001, 20 mg (approximately 3.3 mg/kg) on 3 Mar. 2010, and their second dose on 7 Mar. […] The patient continued to show evidence of progressive neurologic injury. The parents withdrew support on the day following their second dose of CMX001.

BKV(Dunlop) [2] = test: Intracellular BKV load per cell in RPTECs (qPCR); type: cell-based; conditions: CMX001 0.31 μM
Method: FIG. 3 illustrates the influence of CMX001 0.31 μM on BKV genome replication. For Figure, CMX001-treated and untreated BKV-infected RPTECs were harvested at indicated timepoints and intracellular BKV DNA load per cell was measured by qPCR.
To investigate whether the BKV genome replication was affected by CMX001, intracellular BKV load at 24-72 h p.i. by qPCR was measured. The intracellular BKV load was normalized to the cell number using the aspartoacylase (ACY) gene as described (See Bernhoff et al., 2008; Randhawa, et al., Quantitation of DNA of polyomaviruses BK and JC in human kidneys. J Infect Dis., 192, 504-509 (2005)). Compared to untreated RPTECs, CMX001 0.31 μM reduced the intracellular BKV load by 94% at 48 h and 63% at 72 h p.i. (FIG. 3). Then, a significant inhibitory effect of CMX001 on intracellular BKV genome replication, which is the second step of the BKV lifecycle may be identified. This step is known to require LTag expression which also increases viral late gene expression by two mechanisms: 1. increasing the DNA templates for late gene transcription and 2. by activating transcription from the late promoter (Cole, C. N., Polyomavirinae: The Viruses and Their Replication. In Fields Virology, Third edn, pp. 1997-2043. Edited by B. N. Fields, D. M. Knipe & P. H. Howley. New York: Lippincott-Raven (1996).)

JC virus = test: Antiviral activity against JC virus in COS-7 cells (qPCR, 5 days); type: cell-based, JCV(Mad-4)
Method: In order to test the ability of CMX001 to inhibit JC virus, COS-7 cells were infected with JCV(Mad-4) at an estimated TCID50 of 0.2. After 2 h incubation at 37° C., supernatants were replaced with fresh medium without or with increasing amounts of CMX001 and incubated for 5 days. JC virus was quantified by qPCR after DNA extraction.

BKV(Dunlop) [3] = conditions: BKV-infected RPTECs, Bernhoff et al., 2008, cited from earlier work
[4] = JC polyomavirus, 120 h, JCV(Mad-4), 5 days

| Compound | BKV-infected cells by immunofluorescence staining (BKV(Dunlop) [1]; 5 uM CMX001, 72 h p.i.) | BKV-infected cells by immunofluorescence staining (BKV(Dunlop) [1]; 10 uM CMX001, 72 h p.i.) | LTag staining reduced (BKV(Dunlop) [1]; 48 h p.i.) [%] | decrease of VP1 by western blotting (BKV(Dunlop) [1]; 48 h p.i.) [%] | LTag staining reduced (BKV(Dunlop) [1]; 72 h p.i.) [%] | decrease of VP1 by western blotting (BKV(Dunlop) [1]; 72 h p.i.) [%] | decrease in BKV agnoprotein expressing cells (BKV(Dunlop) [1]; CMX001 0.31 uM, immunofluorescence 72 h p.i.) | EBV viral load (EBV; 3 Mar. 2010 (day of first dose, 20 mg)) | EBV viral load (EBV; 7 Mar. 2010 (day of second dose)) | EBV in the plasma (EBV; patient on CMX001) | tolerability (EBV; patient, 4 mg/kg twice weekly) | clinical outcome (EBV; patient, intracranial PTLD, 4 mg/kg twice weekly) | reduction of intracellular BKV load (BKV(Dunlop) [2]; 48 h p.i.) [%] | reduction of intracellular BKV load (BKV(Dunlop) [2]; 72 h p.i.) [%] | EC50 (JC virus; [4]) [nM] | EC90 (JC virus; [4]) [nM] | activity against JC virus (JC virus; in words) | concentration of CDV inhibiting BKV (IC90) (BKV(Dunlop) [3]) [µg/mL] | IC90 (BKV(Dunlop) [3]; read-out: concentration of CDV inhibiting BKV (IC90)) [nM] |
| --- | --- | --- | --- | --- | --- | --- | --- | --- | --- | --- | --- | --- | --- | --- | --- | --- | --- | --- | --- |
| CCCCCCCCCCCCCCCCOCCCOP(=O)(O)CO[C@H](CO)Cn1ccc(N)nc1=O [CMX001] | only few weakly LTag stained cells but no agnoprotein expressing cells were observed | no BKV-infected cell was observed | 33 | 86 | 30 | 63 | approximately 60% | 267,338 copies/mL | 47,427 copies/mL | remains negative | tolerated CMX001 well | clinical improvement of their signs and symptoms of disease as well as stabilization if not reduction of their intracranial mass | 94 | 63 | 150 | 600 | active |  |  |
| Nc1ccn(C[C@@H](CO)OCP(=O)(O)O)c(=O)n1 [cidofovir] |  |  |  |  |  |  |  |  |  |  |  |  |  |  |  |  |  | 40 | 127000 |
